Experiment [1] concerns A. thaliana plants (Col-0). The experiment is described as follows: Flowering assay. Format: in vivo, Arabidopsis thaliana. The note with it: vapors from 0.1% solution. From the text:
Dramatic effects of VOCs have been seen in the seedling stage. The effects on with flowering timing were observed, since the process involves numerous changes in gene expression and therefore potentially susceptible to HDAC inhibitory volatiles. Mutants in HDACs like HDA5 show delayed flowering due to upregulation of flowering repressor genes like FLC and MAF1 (M. Luo et al., Plant J 82, 925-936 (2015)). Conversely, mutants in HDA9lead to early flowering due to increased expression of FLOWERING LOCUS T (FT) and AGAMOUS-LIKE 19 (AGL19) (M. J. Kang, et al., New Phytol 206, 281-294 (2015)). We placed 3 weeks old A. thaliana plants in the glass chambers and exposed them to the vapors of two of the VOCs, diacetyl and α-angelica lactone volatilizing from 0.1% solutions in the glass chamber.
Twenty-seven day old A. thaliana plants (Col-0), that had been transplanted at day 7 to soil, were placed in 10-gallon glass aquarium as chamber along with a petridish containing 2 ml of chemical dissolved in PO or PO alone were placed at the other side of the container. Plants were exposed to odors until all plants began to flower, with odor cartridges being replaced daily. Signs of flower buds opening were counted as plant flowering. One-way analysis of Variance (ANOVA) between groups was performed for plant exposure quantitative data using Graph Pad Prism 9.

The subject of experiment [2] is Arabidopsis thaliana seedlings. The experiment is described as follows: Odor Exposure assay, Arabidopsis thaliana seedlings (root and leaf development). The experiment is classed as in vivo. How it is done:
The Odor Exposure assay consists of controlled exposure of volatile odor compounds to model plant Arabidopsis within enclosed aquariums and similar growth conditions (23° C. with a 12-hour light/dark cycle). For Arabidopsis, seedlings were aligned on agar plates for growth after a 4-day cold treatment process. The agar plates with seedlings were then placed in enclosed aquariums with moist paper towels soaked in 10 ml of DI water for humidity. The plates were placed along the wall, approximately 12 cm from odor dispensers which resided in the center of the glass tank.
The test compound odor dispensers, consisting of (60×15 mm) polystyrene Petri dishes containing 2 ml of 1% v/v in PO, are replaced at the 3.5, 5, and 6-day time mark during the 7-day experiment. Root growth is marked during each time mark and the plates were imaged. The plants are to be collected after the 7-day exposure, photographed, and the leaves/roots carefully dissected separated, flash frozen in liquid nitrogen, and preserved for future sequencing. Root growth is measured using ImageJ.
In order to study the physiological effects of long-term exposure to microbial volatiles the model system Arabidopsis was exposed for […] to diacetyl, a volatile chemical emitted by fermentation by yeast or microbial degradation in the soil associated with roots (R. J. Morcillo et al., EMBO J 39, e102602 (2020); M. A. Farag, et al., Phytochemistry 67, 2262-2268 (2006); and C. M. Ryu et al., P Natl Acad Sci USA 100, 4927-4932 (2003). The Odor Exposure assay consisted of controlled exposure of volatile HDAC inhibiting compounds to model plant Arabidopsis within enclosed aquariums and similar growth conditions. The test compound odor cartridges, consisting of 60×15 mm polystyrene Petri dishes containing 2 ml of indicated concentration in Paraffin Oil, were replaced at the 3.5, 5, and 6-day time mark during the 7-day experiment (FIG. 1A, left). In separate experiments the weight loss from the odor cartridges over time was measured and used it to calculate the concentration of diacetyl in the glass chambers in parts per million (FIG. 1A, right).
In order to directly evaluate whether exposure to vapors of the four HDAC-inhibitory VOCs affect root development, we performed a set of experiments using A. thaliana seedlings as before. Solutions for each of the four chemicals on a small petri dish were placed away from the seedlings growing in agar plate and enclosed in glass tank. The Root tips were marked at specified days post treatment start and photographs analyzed. The plants were collected after the 7-day exposure, photographed, and the roots were separated. Detailed measurements were made from the photos using ImageJ and the root length and numbers of lateral roots quantified at day 3.5 and day 7 after start if the treatment (FIG. 1B).
The Odor Exposure assay consists of controlled exposure of volatile odor compounds to model plant Arabidopsis within enclosed aquariums and similar growth conditions (23° C. with a 12-hour light/dark cycle). The test compound odor cartridges, consisting of (60×15 mm) polystyrene Petri dishes containing 2 ml of 1% v/v in paraffin oil (PO), were replaced at the 3.5, 5, and 6-day time mark during the 7-day experiment. Root growth was marked during each time point and the plates were imaged. Numbers of true leaves were also counted. The plants are to be collected after the 7-day exposure, photographed, and the leaves/roots carefully dissected separated, flash frozen in liquid nitrogen, and preserved for future sequencing. Root growth is measured using ImageJ.

For experiment [3], the system named is Arabidopsis thaliana roots. Put plainly: RNA-Seq of roots of diacetyl vapor exposed Arabidopsis seedlings. Format: in vivo. On the procedure:
In order to understand the molecular changes occurring with the volatile exposure and possibly underlying this developmental phenotype, an RNA-Seq analysis of the roots in diacetyl exposed vs control was performed. A large number of differentially expressed genes (DEGs) was found in the roots of the diacetyl vapor exposed Arabidopsis. 5197 differentially expressed genes (DEGs) (false discovery rate, FDR<0.05) were identified in the root transcriptome of diacetyl-exposed seedlings compared to control.
A. thaliana plants (Col-0) were grown in an Agar medium were synchronized to germinate using pre-treatment in cold. Exposure experiments were started using plants the plates when they were 11 days old and placed in a 10-gallon glass aquarium as a chamber along with a petri dish containing 1 ml of chemical dissolved in PO or PO alone were placed at the other side of the container. After the desired exposure, the roots were separated, and a Trizol-based RNA isolation was carried out as above. Two biological replicates were performed for each condition, with an average of 68,355,820 reads/replicate, with an average of 95% mapped. Multiplexed libraries were made from total RNA input using the Illumina TruSeq RNA sample preparation kit (v2) and 50 bps single-end sequencing was done using the NextSeq500.

Experiment [4] has as its system Arabidopsis thaliana seedlings. Put plainly: Odor Exposure assay, Arabidopsis thaliana seedlings (root and leaf development). The experiment is classed as in vivo. The following applies: 10-fold lower dose (0.1% solution headspace).
[5] abbreviates: 7-day exposure, headspace of 1% v/v in Paraffin oil.

Molecules are shown by their SMILES. Entries after “also recorded” stand apart in the source; their conditions may differ.

In experiment [1], `CC(=O)C(C)=O` [2,3-butanedione] yielded a delay in flowering of 11 days. Moreover, in experiment [2] (3.5-day exposure, headspace of 1% v/v in Paraffin oil), the root growth entry is on record as “significant root growth inhibition”. Besides, the “lateral root growth (number of lateral roots)” value in experiment [2] (setting [5]) is “increase; also recorded: notable lateral root promotion; also recorded: significant phenotypic changes”; in experiment [2] (7-day exposure, headspace of 1% v/v in Paraffin oil, listed as 2,3-butandione), “promoted lateral root growth”. The “leaf development (number of large / true leaves)” value in experiment [2] (setting [5]) was “changes in the number of true leaf development/growth; also recorded: significant phenotypic changes”; in experiment [2] (7-day exposure, headspace of 1% v/v in Paraffin oil, listed as diacetyl), “significant decreases”. The “root growth (primary root length)” value in experiment [2] (7-day exposure, headspace of solution in Paraffin oil) is listed as “lack of growth”. Also, in experiment [2] (highest dose, 7-day exposure), the “lateral roots, number relative to control” value is reported as roughly 3 times. Also, in experiment [3] (1% (v/v) headspace, 7 days, FDR<0.05), the “differentially expressed genes (DEGs) in the root transcriptome” value is reported as 5197 genes. Also, the “significantly down-regulated genes in roots” value in experiment [3] (log2 fold-change<-1, FDR<0.05) came to 2572 genes. Also, in experiment [3] (log2 fold-change>1, FDR<0.05), the “significantly up-regulated genes in roots” value amounted to 2625 genes. Further, the “change from solvent treated seedlings in every growth category” value in experiment [4] was “significant change”.
